The test system of one series is PPARγ. The experiment in a line: hPPARg reporter bioassay (Gal4-hPPAR / UAS-luciferase) in HeLa cells. Format: cell-based. To be noted: human HeLa cells, dose response. The source says:
(§1) In more detail, when PPARs fix their ligands they are able to shuttle from cytoplasm to the nucleus of HeLa cells. Then, PPARs heterodimerize with co-receptors called Retinoid-X-Receptors (RXR). Heterodimeric transcription factors PPAR/RXR are responsible for PPARs-mediated transcriptional program. In this system, hPPARs are fused to Gal4. Gal4 is a yeast transcription activator which specifically binds a Gal4 responsive element so-called Upstream Activation Sequence (UAS)— this short section in a promoter region strongly activates gene transcription. Therefore, cotransfection of Gal4-hPPARs with UAS-luciferase constructs allows identification hPPARs agonists. Agonists will stimulate luciferase transcription resulting in the formation of a functional enzyme that converts substrate to detectable signal by a chemiluminescent reaction.
(§2) The assays detect binding of a ligand to the hPPAR of interest by directly measuring luciferase activity. When PPARs fixe their ligands they are able to shuttle from cytoplasm to the nucleus of HeLa cells. Then, PPARs heterodimerize with co-receptors called Retinoid-X-Receptors (RXR). […]
(§3) An edible plant fraction library was tested for PPARs agonist activity and toxicity. Then relevant plant fractions were further analyzed and bioactive(s) characterized and validated with the same hPPARa, hPPARg or hPPARd reporter bioassays. […]

In another series the test system is PPARα. The experiment in a line: hPPARa reporter bioassay (Gal4-hPPAR / UAS-luciferase) in HeLa cells. Format: cell-based. The following applies: human HeLa cells, dose response.
Description: as §1, §2, §3

The test system of a further series is HeLa cells. Briefly: Cellular toxicity, standard method, compared to untreated cells. It counts as cell-based, human. To be noted: up to highest dose used. Here is the method: The AC50 (upper part of the insert) and the maximum % activation (lower part of the insert) are given. Cellular toxicity was also assessed with standard method compared to untreated cells and shown in % of toxicity.
An edible plant fraction library was tested for PPARs agonist activity and toxicity. Then relevant plant fractions were further analyzed and bioactive(s) characterized and validated with the same hPPARa, hPPARg or hPPARd reporter bioassays. The reporter bioassay we used in order to identify anti-inflammatory plant properties targeted activation of human PPARs in human HeLa cells (as described in the FIG. 1). All isolated bioactives were tested in a dose response manner in duplicate. Assays were repeated 3-4 times. Shown are mean values obtained. Therefore specificity (for all the three known human PPAR receptors namely PPARα, PPARd and PPARg) and efficacy (full agonist i.e. % maximal activity >100% or partial agonist i.e. % maximal activity <100%) were tested (FIG. 2-4).

As to `COc1cc([C@@H]2c3cc4c(cc3[C@H](O)[C@H]3COC(=O)[C@H]23)OCO4)cc(OC)c1OC` [podophyllotoxin], the “agonistic activity on PPARγ” value with PPARγ was “dual agonistic activity”. Further, the “agonistic activity on PPARα” value in the series with PPARα is recorded as “dual agonistic activity”.

Take `COc1cc([C@@H]2c3cc4c(c(O)c3C[C@H]3COC(=O)[C@@H]32)OCO4)cc(OC)c1OC` [β-peltatin]: the “agonistic activity on PPARγ” value in the series on PPARγ is “dual agonistic activity”. Further, the “agonistic activity on PPARα” value in the series on PPARα is recorded as “dual agonistic activity”. Besides, the “cellular toxicity (% of toxicity)” value with HeLa cells (FIG. 2, alongside PPARα activation dose-response) was “no toxicity was observed”; in the series with HeLa cells (FIG. 3, alongside PPARg activation dose-response), “no toxicity was observed”; in the series with HeLa cells (FIG. 4, alongside PPARd activation dose-response), “no toxicity was observed”.

Source of the values: patent US20150057344A1, “PELTATIN FOR THE TREATMENT OF CHRONIC INFLAMMATORY DISORDERS” (priority 2012, published 2015).
